Measurements taken from patent US20260335398A1, “METHODS FOR TREATING PANCREATIC CANCER WITH A COMBINATION OF DES-METHYL PATEAMINE A AND A CLASS I HDAC INHIBITOR” (Baylor University, priority 2023, published 2026).

Legend:
[1] = test system: MIA PaCa-2 cells; experiment: Glutamine consumption/rescue of mitochondrial function (ΔOCR) (FIG. 8C right); type: cell-based; details: cells starved of glucose, glutamine and pyruvate 1 h, then glutamine
Protocol: FIG. 8C left panel presents the results of metabolic flux analysis showing basal mitochondrial respiration (OXPHOS) (oxygen consumption rate, OCR) in MIA PaCa-2 cells following treatment with combinations or single drugs. Treatment was for a total of 18 h, as mentioned in FIG. 8A. Statistical significance was determined by one-way ANOVA, ***p value<0.001, *p value<0.01. FIG. 8C right panel presents the results of quantification of glutamine consumption. Cells were treated as mentioned in FIG. 8A. Prior to the metabolic measurements cells were starved of glucose, glutamine, and pyruvate for 1-hour after which glutamine was added and response was recorded as ΔOCR (i.e. OCR before and after glutamine addition). Statistical significance was determined by one-way ANOVA, ****p value<0.0001, ***p value<0.0005.
Because reprograming/augmentation of cellular metabolism by c-MYC is known to support oncogenesis, the Seahorse XF analyzer was used to assess the impact of the treatments on c-MYC-driven metabolism including ATP production, glycolysis, and mitochondrial oxidative phosphorylation (OXPHOS). Extracellular acidification rates, also known as proton efflux rate (PER), were measured for glycolysis and mitochondrial oxygen consumption rates (OCR) for OXPHOS. We utilized the 6 h exposure followed by 18 h washout strategy for romidepsin described earlier. […]

[2] = Body weight of xenograft mice (FIG. 2B); type: in vivo, athymic nude mice; details: IP; romidepsin 0.75 mg/kg, DMPatA 0.075 mg/kg
Source text: FIGS. 2A and 2B illustrate the results of a MIA PaCa-2 xenograft model of PDAC in male athymic nude mice. FIG. 2A compares tumor growth (mm^3) in mice treated with the indicated concentrations of combination, romidepsin and DMPatA using IP route and vehicles described in the materials and methods section below. FIG. 2B compares body weight (g) of mice treated with the combination and single agents following treatment. FIGS. 2C and 2D compare quantification of H3K9ac and c-MYC antibodies. Frozen sections from MIA PaCa-2 xenograft tumor tissues were subjected to immunohistochemical analysis using antibodies against H3K9ac, and c-MYC. Fluorescence images were captured using fluorescent microscopy and the fluorescent signal from H3K9ac and c-MYC antibodies were quantified. To quantify fluorescence intensity at least 500 cells per condition were measured for each antibody at 40× magnification. The median of the signal intensity is shown. Statistical significance was determined by one-way ANOVA using Tukey multiple comparisons test, ****p value<0.0001.
Animal studies were performed according to Institutional Animal Care and Use Committee (IACUC) protocol number AC-AABD2601. Following the establishment of initial dose levels for individual drugs, efficacy of the combination and single agents in a MIA PaCa-2 xenograft model was assessed at a tolerable dose and schedule. […]

[3] = test system: PANC-1, PANC 02.13, MIA PaCa-2, Capan-1, KLM, AsPC-1 and BXPC3 cells; experiment: Cytotoxicity/cell viability with romidepsin, DMPatA and their combination in seven PDAC cell lines (FIG. 1A); type: cell-based; details: romidepsin 15 nM for 6 h, alone or with DMPatA 2 nM
Protocol: FIG. 1A compares cytotoxicity graphs of the effect of romidepsin alone at increasing doses (circles), DMPatA alone at 2 nM (diamond), and combination of romidepsin with DMPatA at 2 nM (triangles) on PANC-1, PANC 02.13, MIA PaCa-2, Capan-1, KLM, AsPC-1 and BXPC3 cells. Romidepsin treatment in both the single agent and the combination was for 6 hours after which it was washed out and medium replaced with fresh medium without (single agent romidepsin) or with DMPatA for an additional 42 hours (combination).
This schedule of romidepsin treatment features a 6-hour exposure followed by washout of romidepsin and replacement with fresh media, whereas most investigators expose cells to 1-2 nM over 48-96 hours of continuous romidepsin. […] Thus a 6-hour exposure is more clinically relevant. Most cell types are susceptible to romidepsin over non-clinically relevant long treatment durations.
It was initially hypothesized that the HDAC-inhibitor romidepsin could cause synergistic cell death when combined with DMPatA via a reduction in MYC levels previously seen with both eIF4A inhibitors and with romidepsin in KRAS cells. […]
Cell viability was determined using CellTiter-Glo® reagent (Promega, #G7570) following the manufacturer's instructions. […] After incubation, assay reagent was added, and luminescent signals were quantified using a microplate reader (PHERAstar® FS, BMG LABTECH, Ortenberg, Germany). […]

SMILES: C/C=C1\NC(=O)[C@H]2CSSCC/C=C/[C@H](CC(=O)N[C@H](C(C)C)C(=O)N2)OC(=O)[C@H](C(C)C)NC1=O [romidepsin]
- glutamine rescue of mitochondrial function (ΔOCR) [1]: impaired glutamine rescue of mitochondrial function
- body weight vs vehicle [2]: neither the single agent nor the combination treatments had a significant impact on weight
- toxicity / lethality at low concentration [3]: minimal to no toxicity
